Data: US12344613B2, “EGFR inhibitor for the treatment of cancer” (Hoffmann-La Roche Inc., priority 2019, dated 2025)

Biological target: T1, EGFR TMLRCS (BaF3-TMLRCS cell line) (Homo sapiens, UniProt P00533, C797S/L858R/T790M)
T1 construct: host or cells: Ba/F3 (BaF3-TMLRCS), maintained under puromycin selection
Experiment: HTRF Phospho EGFR TMLRCS Assay (Cellular)
Format: cell-based
Details: BaF3-TMLRCS cells, 4 hours incubation
Method: HTRF Phospho EGFR TMLRCS Assay (Cellular)
BaF3-TMLRCS cell line were obtained from Crownbio (San Diego, CA, USA). Cells were maintained at 37° C., 5% CO2 in RPMI ATCC (Gibco 31870)+2 mM Glutamine+0.5 μg/ml Puromycin supplemented with 10% fetal bovine serum (FBS) (Gibco).
Cells are transferred as above to Greiner Bio-One, Nr. 784-08 micro-titerplate at 20000 cells/well in 12.5 μl of growth medium/well after the plates had been pre-filled with 12.5 nl of DMSO solutions of the to be tested compounds (in dose response) or DMSO only. After spinning the plates at 300×g for 30 seconds the cells were incubated for 4 hours at 37 C, 5% CO2, 95% humidity. The cells were lysed by adding to the compound mix 4 μl/well of the supplemented lysis buffer (Cis-bio, Phospho-EGFR HTRF kit, 64EG1PEH), followed by incubation for 30 min at room temperature with shaking (400 rpm). The plates were then frozen and stored overnight at −80 C. […] The lidded plates were then incubated for 4 h at room temperature before reading the fluorescence emission at 616 and 665 nm using an Envision reader (Perkin Elmer). Data was analyzed in similar fashion as above using the normalized ratio of the 665 to 616 signals multiplied by 10000.

T1 sequence (P00533 25-1210 T790M/C797S/L858R): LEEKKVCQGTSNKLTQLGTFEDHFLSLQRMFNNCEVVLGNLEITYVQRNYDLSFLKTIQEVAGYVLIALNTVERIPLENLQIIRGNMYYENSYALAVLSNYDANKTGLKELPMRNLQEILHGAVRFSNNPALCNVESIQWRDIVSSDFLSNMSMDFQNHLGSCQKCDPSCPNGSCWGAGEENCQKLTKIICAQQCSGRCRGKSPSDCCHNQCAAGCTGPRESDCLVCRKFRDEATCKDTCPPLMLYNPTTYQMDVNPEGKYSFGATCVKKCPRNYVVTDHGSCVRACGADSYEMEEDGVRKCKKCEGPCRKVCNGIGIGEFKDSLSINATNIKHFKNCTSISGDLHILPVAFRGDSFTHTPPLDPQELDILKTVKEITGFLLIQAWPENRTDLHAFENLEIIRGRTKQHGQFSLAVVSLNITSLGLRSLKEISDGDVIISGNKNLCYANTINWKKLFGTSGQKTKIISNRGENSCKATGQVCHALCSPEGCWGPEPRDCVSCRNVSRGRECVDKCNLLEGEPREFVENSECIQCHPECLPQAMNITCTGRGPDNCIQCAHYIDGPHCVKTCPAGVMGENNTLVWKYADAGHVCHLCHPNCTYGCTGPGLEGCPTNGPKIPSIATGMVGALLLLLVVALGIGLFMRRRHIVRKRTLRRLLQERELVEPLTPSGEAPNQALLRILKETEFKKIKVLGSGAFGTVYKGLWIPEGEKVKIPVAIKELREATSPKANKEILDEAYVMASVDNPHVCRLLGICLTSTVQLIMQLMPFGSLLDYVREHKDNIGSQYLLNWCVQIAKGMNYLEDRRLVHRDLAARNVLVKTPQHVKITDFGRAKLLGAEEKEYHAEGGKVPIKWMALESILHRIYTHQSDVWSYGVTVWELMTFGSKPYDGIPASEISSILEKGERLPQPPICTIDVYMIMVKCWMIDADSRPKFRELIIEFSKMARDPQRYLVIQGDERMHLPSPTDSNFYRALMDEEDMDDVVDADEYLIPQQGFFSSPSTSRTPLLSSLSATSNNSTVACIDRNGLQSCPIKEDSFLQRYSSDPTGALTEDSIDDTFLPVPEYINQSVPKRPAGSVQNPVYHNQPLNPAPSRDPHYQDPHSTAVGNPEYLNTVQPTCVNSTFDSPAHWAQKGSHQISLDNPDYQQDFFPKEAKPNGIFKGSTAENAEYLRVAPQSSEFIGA

IC50: 5 nM
SMILES: O=C(Nc1nccs1)C(c1ncn2c1C[C@@H](F)C2)n1cc2c(Cl)cc(-c3ccc(N4CCOCC4)cc3)c(Cl)c2n1 (stereo partly drawn) [Example 1, 2-[4,7-Dichloro-6-(4-morpholinophenyl)indazol-2-yl]-2-[(6R)-6-fluoro-6,7-dihydro-5H-pyrrolo[1,2-c]imidazol-1-yl]-N-thiazol-2-yl-acetamide]
